≈ marks a conversion by molar mass, not a printed value. Calls of active or inactive are those of the source. No cut-off for these calls is given here.
Assays:
[1] = tested on: KB; assay: Cytotoxicity against human KB cells; assay type: functional; conditions: read-out: ED50 (the source's name)
[2] = tested on: P388; assay: Cytotoxicity against mouse P388 cells; assay type: functional; conditions: read-out: ED50 (the source's name)
[3] = Cytotoxicity against human RPMI cells; assay type: functional; conditions: read-out: ED50 (the source's name)
[4] = tested on: TE-671; assay: Cytotoxicity against human TE671 cells; assay type: functional; conditions: read-out: ED50 (the source's name)
[5] = tested on: A549; assay: Cytotoxicity against human A549 cells at 4 ug/ml; assay type: functional, cell-based
[6] = tested on: HCT-8; assay: Cytotoxicity against human HCT8 cells at 4 ug/ml; assay type: functional, cell-based
[7] = tested on: A549; assay: Cytotoxicity against human A549 cells; assay type: functional; conditions: read-out: ED50 (the source's name)

| Compound | EC50 [1] | EC50 [2] | EC50 [3] | EC50 [4] | Activity [5] | Activity [6] | EC50 [7] |
| --- | --- | --- | --- | --- | --- | --- | --- |
| CC(=O)O[C@H]([C@H](O)c1ccccc1)[C@H]1CC=CC(=O)O1 | < 0.1 µg/mL | < 0.1 µg/mL | < 0.1 µg/mL | < 0.1 µg/mL | inactive | inactive | – |
| O=C1C=CC[C@H]([C@H](O)[C@H](O)c2ccccc2)O1 [GONIODIOL] | – | – | – | – | – | – | 0.12 µg/mL (≈ 0.512 µM) |

From ChEMBL document CHEMBL1158973, “The crystal structure and cytotoxicity of goniodiol-7-monoacetate from Goniothalamus amuyon” (1991)
